“And” between values parts separate entries of the source, which are not always exact repeats. Equal entries are not always repeated.
Legend:
U-937/Bcl-2 cells = test: MTT cytotoxicity assay, U-937/Bcl-2; format: cell-based, human; settings: Homo sapiens, U-937, 72 h, means ± SEM
Source text: (§1) U-937, HL-60, MOLT-3, NALM-6, and SK-MEL-1 cells were from DSMZ (German Collection of Microorganisms and Cell Cultures, Braunschweig, Germany). U-937/Bcl-2 cells were kindly provided by Dr. Jacqueline Bréard (INSERM U749, Faculté de Pharmacie Paris-Sud, Châtenay-Malabry, France). The U-937 is a pro-monocytic, human promyelocytic leukemia cell line that was isolated from a histiocytic lymphoma. HL-60 is a human acute myeloid leukemia cell line. MOLT-3 is a human acute lymphoblastic leukemia cell line. NALM-6 is a human B cell precursor leukemia. SK-MEL-1 is a human melanoma cell line growing singly or in clumps (occasional giant, polynucleated cell) in suspension. Cells were cultured in RPMI 1640 medium containing 10% (v/v) heat-inactivated fetal bovine serum, 100 μg/mL streptomycin, and 100 U/mL penicillin, incubated at 37 °C in a humidified atmosphere containing 5% CO2 as described. The doubling times of the cell lines were 24 h in HL-60, 30 h in U-937, U-937/Bcl-2, 40 h in MOLT-3 and NALM-6, and several days in SK-MEL-1 cells. Human peripheral blood mononuclear cells (PBMC) were isolated from heparin-anticoagulated blood of healthy volunteers by centrifugation with Ficoll-Paque Plus (GE Healthcare Bio-Sciences AB, Uppsala, Sweden). PBMC were also stimulated with phytohemagglutinin (2 µg/mL) for 48 h before the experimental treatment. The trypan blue exclusion method was used for counting the cells by a hemocytometer with 95% viability in all the experiments. Compounds were dissolved in dimethyl sulfoxide (DMSO) and kept under dark conditions at 25 °C. […] The cytotoxicity of the synthetic compounds was evaluated by colorimetric 3-(4,5-dimethyl-2-thiazolyl-)-2,5-diphenyl-2H-tetrazolium bromide (MTT) assay as previously described. Briefly, cells (5000 per well) were incubated with increasing concentrations of compounds for 72 h into a 96-well plate. Then, the supernatants were removed and 0.5 mg/mL MTT was added and incubated for 4 h at 37 °C. Sodium dodecyl sulfate (10% w/v) in 0.05 M HCl was added to solubilize the reaction products and the absorbance was measured at 570 nm with a reference wavelength of […] using an ELISA reader (Bio-Rad, Hercules, CA, USA). The IC50 values (concentrations inducing a 50% inhibition of cell viability) were determined graphically for each experiment by a nonlinear regression using the curve fitting routine implemented within the software Prism 5.0 (GraphPad, La Jolla, CA, USA).

HL-60 cells = test: MTT cytotoxicity assay, HL-60; format: cell-based; settings: Homo sapiens, HL-60, 72 h, means ± SEM
Source text: as §1

U-937 cells = test: MTT cytotoxicity assay, U-937; format: cell-based; settings: Homo sapiens, U-937, 72 h, means ± SEM
Source text: as §1

MOLT-3 cells = test: MTT cytotoxicity assay, MOLT-3; format: cell-based, human; settings: Homo sapiens, MOLT-3, 72 h, means ± SEM
Source text: as §1

SK-MEL-1 cells = test: MTT cytotoxicity assay, SK-MEL-1; format: cell-based, human; settings: Homo sapiens, SK-MEL-1, 72 h, means ± SEM
Source text: as §1

NALM-6 cells = test: MTT cytotoxicity assay, NALM-6; format: cell-based, human; settings: for IC50: Homo sapiens, NALM-6, 72 h, 72 h, MTT, means ± SEM
Source text: as §1

U-937 leukemia cells = test: Cell cycle and sub-G1 analysis by flow cytometry (propidium iodide); format: cell-based, human; settings: 24 h; for fold increase of sub-G1 cells over control / %G1 / %G2-M / %S / %Sub-G1: 10 µM; for fold increase of sub-G1 cells over control: U-937; for %G1 / %G2-M / %S / %Sub-G1: U-937, means ± S.E.; for cell cycle arrest: U-937, 10 µM
Method: Cells (2.5 × 10^5) were centrifuged for 10 min at 500× g, washed with cold PBS, fixed with ice-cold 75% ethanol and stored at −20 °C overnight. Samples were then centrifuged at 500× g for 10 min at 4 °C, washed with PBS, resuspended in 200 μL of PBS containing 100 μg/mL RNase and 50 μg/mL propidium iodide and incubated for 1 h in the dark. The DNA content was analyzed by flow cytometry with a BD FACSVerse^TM cytometer (BD Biosciences, San Jose, CA, USA). Apoptosis was also evaluated by flow cytometric analysis of double-staining annexin V-FITC and propidium iodide cells as previously described.

[1] = test system: six human cancer cell lines; test: MTT cytotoxicity assay, all cell lines assayed (summary statements); format: cell-based; settings: 72 h, MTT
Source text: U-937, HL-60, MOLT-3, NALM-6, and SK-MEL-1 cells were from DSMZ (German Collection of Microorganisms and Cell Cultures, Braunschweig, Germany). U-937/Bcl-2 cells were kindly provided by Dr. Jacqueline Bréard (INSERM U749, Faculté de Pharmacie Paris-Sud, Châtenay-Malabry, France). The U-937 is a pro-monocytic, human promyelocytic leukemia cell line that was isolated from a histiocytic lymphoma. HL-60 is a human acute myeloid leukemia cell line. MOLT-3 is a human acute lymphoblastic leukemia cell line. NALM-6 is a human B cell precursor leukemia. SK-MEL-1 is a human melanoma cell line growing singly or in clumps (occasional giant, polynucleated cell) in suspension. Cells were cultured in RPMI 1640 medium containing 10% (v/v) heat-inactivated fetal bovine serum, 100 μg/mL streptomycin, and 100 U/mL penicillin, incubated at 37 °C in a humidified atmosphere containing 5% CO2 as described. […] The cytotoxicity of the synthetic compounds was evaluated by colorimetric 3-(4,5-dimethyl-2-thiazolyl-)-2,5-diphenyl-2H-tetrazolium bromide (MTT) assay as previously described. […] Sodium dodecyl sulfate (10% w/v) in 0.05 M HCl was added to solubilize the reaction products and the absorbance was measured at 570 nm with a reference wavelength of […] using an ELISA reader (Bio-Rad, Hercules, CA, USA). […]

Row | Structure (SMILES) | IC50 (U-937/Bcl-2 cells) [µM] | IC50 (HL-60 cells) [µM] | IC50 (U-937 cells) [µM] | IC50 (MOLT-3 cells) [µM] | IC50 (SK-MEL-1 cells) [µM] | IC50 (NALM-6 cells) [µM] | fold increase of sub-G1 cells over control (U-937 leukemia cells) | %G1 (U-937 leukemia cells) [%] | %G2-M (U-937 leukemia cells) | %S (U-937 leukemia cells) [%] | %Sub-G1 (U-937 leukemia cells) | cell cycle arrest (U-937 leukemia cells) | cytotoxicity against the cancer cell lines assayed [1] | increase in cytotoxicity on substitution of p-tosyl-sulfonyl group (6b) by phenyl group (NALM-6 cells; NALM-6, IC50 ratio 6b vs 6h)
1 | [N-]=[N+]=Nc1ccc(/C=C/C(=O)c2c(O)cccc2OCc2ccccc2)cc1 [Compound 3] | > 30 | > 30 | > 30 | 7.4 ± 0.4 | > 30 | 11.6 ± 1.6 | – | – | – | – | – | – | – | –
2 | Cc1ccc(S(=O)(=O)NC(=Nc2ccc(/C=C/C(=O)c3c(O)cccc3OCc3ccccc3)cc2)NC(C)C)cc1 [Compound 6a] | 2.9 ± 0.2 | 3.7 ± 1.6 | 11.4 ± 6.5 | 2.9 ± 1.1 | > 30 | 2.9 ± 0.5 | – | – | – | – | – | – | – | –
3 | Cc1ccc(S(=O)(=O)NC(=Nc2ccc(/C=C/C(=O)c3c(O)cccc3OCc3ccccc3)cc2)N(C(C)C)C(C)C)cc1 [Compound 6b] | 11.7 ± 7 | 20.5 ± 9.5 | 18.5 ± 9.6 | 2 ± 0.7 | > 30 | 27 ± 0.8 | – | – | – | – | – | – | – | –
4 | Cc1ccc(S(=O)(=O)NC(=Nc2ccc(/C=C/C(=O)c3c(O)cccc3OCc3ccccc3)cc2)N(C)c2ccccc2)cc1 [Compound 6c] | 4.2 ± 1.2 | 4.2 ± 0.5 | 9.5 ± 5.3 | 2.5 ± 0.2 | > 30 | 9.9 ± 3.1 | ~ 10 fold | 37.4 ± 0.3 | 11.4 ± 0.4% | 27.0 ± 0.7 | 23.5% and 23.5 ± 1.2 % | not caused by a significant cell cycle arrest in any phase | – | –
5 | Cc1ccc(S(=O)(=O)NC(=Nc2ccc(/C=C/C(=O)c3c(O)cccc3OCc3ccccc3)cc2)N2CCCCC2)cc1 [Compound 6d] | 24.6 ± 5.4 | 28.5 ± 14.3 | > 30 | 3.3 ± 0.6 | > 30 | 6.6 ± 1.2 | – | – | – | – | – | – | – | –
6 | Cc1ccc(S(=O)(=O)NC(=Nc2ccc(/C=C/C(=O)c3c(O)cccc3OCc3ccccc3)cc2)N2CCOCC2)cc1 [Compound 6e] | 2.3 ± 0.9 | 3.8 ± 1.1 | 5.4 ± 2.1 | 3.2 ± 1.5 | 14.3 ± 5.7 | 3.1 ± 0.5 | ~ 5 fold | 36.5 ± 2.3 | 27% and 27.3 ± 2.0 % | 23.6 ± 0.5 | 11.9% and 11.9 ± 0.2 % | induced an arrest at the G2-M phase | – | –
7 | CCCCCCCCCCCCCCCCCCNC(=Nc1ccc(/C=C/C(=O)c2c(O)cccc2OCc2ccccc2)cc1)NS(=O)(=O)c1ccc(C)cc1 [Compound 6g] | > 30 | > 30 | > 30 | > 30 | > 30 | > 30 | – | – | – | – | – | – | not cytotoxic | –
8 | CC(C)N(/C(=N/c1ccc(/C=C/C(=O)c2c(O)cccc2OCc2ccccc2)cc1)Nc1ccccc1)C(C)C [Compound 6h] | 14 ± 6.6 | 5.2 ± 0.9 | 10.6 ± 2.6 | 4.3 ± 0.5 | 5.2 ± 1 | 5.4 ± 0.2 | – | 53.7 ± 0.4 | 9.2 ± 0.5 % | 29.5 ± 0.3 | 7.2 ± 1.1 % | not caused by a significant cell cycle arrest in any phase | – | five-fold
9 | O=C(/C=C/c1ccc(N=C(Nc2ccccc2)N2CCOCC2)cc1)c1c(O)cccc1OCc1ccccc1 [Compound 6j] | 11.7 ± 3.4 | 6.2 ± 1.7 | 8.6 ± 1.1 | 1.8 ± 0.5 | 5.4 ± 0.8 | 4.1 ± 0.5 | – | 51.3 ± 1.1 | 11.5 ± 0.1% | 32.0 ± 0.4 | 4.7 ± 0.6% | – | – | –
10 | CN1CCN(C(=Nc2ccc(/C=C/C(=O)c3c(O)cccc3OCc3ccccc3)cc2)Nc2ccccc2)CC1 [Compound 6k] | 14 ± 5.1 | 11.4 ± 5.5 | 14 ± 1.1 | 21.7 ± 6.5 | > 30 | 24.8 ± 3.3 | – | – | – | – | – | – | – | –
11 | COc1cccc2c1C(=O)c1c(O)c3c(c(O)c1C2=O)C[C@@](O)(C(=O)CO)C[C@@H]3O[C@H]1C[C@H](N)[C@H](O)[C@H](C)O1 [Doxorubicin, reference compound] | – | – | 0.1 | – | 0.3 ± 0.1 | – | – | – | – | – | – | – | – | –
12 | COc1cc([C@@H]2c3cc4c(cc3[C@@H](O[C@@H]3O[C@@H]5CO[C@@H](C)O[C@H]5[C@H](O)[C@H]3O)[C@H]3COC(=O)[C@H]23)OCO4)cc(OC)c1O [Etoposide, reference compound] | – | 0.6 ± 0.2 | 1.8 ± 0.2 | 0.2 ± 0.1 | 9 ± 3 | – | – | – | – | – | – | – | – | –

— publication PMC9779571, “Guanidine Derivatives Containing the Chalcone Skeleton Are Potent Antiproliferative Compounds against Human Leukemia Cells” (International Journal of Molecular Sciences, 2022)
